Data taken from patent US5428031A, “Methods of treating cardiac arrhythmia” (priority 1993, dated 1995).

Molecular target: T1, IKr (rapidly activating delayed rectifier K+ current) (Cavia porcellus, UniProt O08703)
T1 construct: Guinea pig ventricular myocytes were isolated; endogenous in cells; host or cells: isolated guinea pig ventricular myocytes
T1 sequence (O08703 1-1294): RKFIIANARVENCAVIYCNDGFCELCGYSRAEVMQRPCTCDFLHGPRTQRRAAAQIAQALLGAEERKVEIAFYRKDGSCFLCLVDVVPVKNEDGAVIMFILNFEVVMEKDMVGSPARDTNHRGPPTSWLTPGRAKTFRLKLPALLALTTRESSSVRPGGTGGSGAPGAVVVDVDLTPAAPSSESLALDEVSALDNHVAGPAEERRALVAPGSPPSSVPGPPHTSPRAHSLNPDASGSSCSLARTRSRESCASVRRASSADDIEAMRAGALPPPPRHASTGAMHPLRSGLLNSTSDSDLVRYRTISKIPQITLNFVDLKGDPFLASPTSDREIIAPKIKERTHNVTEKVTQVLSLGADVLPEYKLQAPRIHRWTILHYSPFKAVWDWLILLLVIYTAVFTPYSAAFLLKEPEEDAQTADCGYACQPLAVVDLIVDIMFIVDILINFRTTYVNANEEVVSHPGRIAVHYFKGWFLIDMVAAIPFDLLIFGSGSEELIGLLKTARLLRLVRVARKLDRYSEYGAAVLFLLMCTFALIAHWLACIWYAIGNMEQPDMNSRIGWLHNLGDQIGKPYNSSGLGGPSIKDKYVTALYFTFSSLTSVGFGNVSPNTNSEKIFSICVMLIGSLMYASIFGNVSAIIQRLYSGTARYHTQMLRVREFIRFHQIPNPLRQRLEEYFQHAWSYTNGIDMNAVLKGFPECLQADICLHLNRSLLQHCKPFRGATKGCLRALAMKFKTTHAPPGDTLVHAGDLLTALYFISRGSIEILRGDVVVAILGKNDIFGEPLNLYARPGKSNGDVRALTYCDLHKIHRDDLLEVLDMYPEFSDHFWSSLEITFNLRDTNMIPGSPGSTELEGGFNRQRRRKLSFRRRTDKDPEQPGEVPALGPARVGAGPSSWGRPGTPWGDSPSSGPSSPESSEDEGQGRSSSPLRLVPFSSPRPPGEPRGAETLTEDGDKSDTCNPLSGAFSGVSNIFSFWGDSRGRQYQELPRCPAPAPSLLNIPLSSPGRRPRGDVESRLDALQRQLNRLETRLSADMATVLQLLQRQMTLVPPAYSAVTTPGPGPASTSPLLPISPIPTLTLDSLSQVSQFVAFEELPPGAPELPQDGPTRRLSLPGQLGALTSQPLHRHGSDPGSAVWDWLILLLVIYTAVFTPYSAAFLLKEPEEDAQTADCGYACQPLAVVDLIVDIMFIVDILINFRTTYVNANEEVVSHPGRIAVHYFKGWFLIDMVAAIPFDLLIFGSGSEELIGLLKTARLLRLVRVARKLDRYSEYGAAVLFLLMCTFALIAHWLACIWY
Test: voltage clamp measurement of IKr block in isolated guinea pig ventricular myocytes
Format: cell-based
Experimental: Guinea pig ventricular myocytes were isolated using a modification of the procedure described by Mitra R and Morad M., "A Uniform Enzymatic Method for Dissociation of Myocytes from Hearts and Stomachs of Nertilorates", Am. J. Physiol. […] Excised hearts were perfused through the aorta (retrograde fashion) at a rate of 10 ml/min with oxygenated, warmed (37° C.) solutions described below. […] The head was then perfused with the same nominally Ca^2+ -free solution containing 150 units/ml Type II collagenase (Worthington) and 0.5 units/ml Type XIV protease (Sigma) for 8 minutes. This perfusate was followed by a Tyrode's solution containing 0.2 mM CaCl2 (without enzymes) for 5 minutes. The digested ventricles were cut into small pieces and gently shaken until cells were visibly dispersed. The cells were stored at room temperature until use, within 8 hours after isolation.
The suction microelectrode technique described by Giles, W. R. and Shibata, E. F., "Voltage clamp of bull-frog cardiac pacemaker cells: a quantitative, analysis of potassium currents". J. Physiol. […] Microelectrodes were made by using a two stage puller from square bore (1.0 mm o.d.) borosilicate capillary tubing. […] After establishing whole-cell recording mode, negative pressure was maintained on the pipette using a 1 ml gas-tight syringe attached via air tight tubing to the suction port of the microelectrode holder. This minimized dialysis of the cell with the pipette solution.
To record K^+ currents, the cells were bathed in a Ca^2+ -free Tyrode's :solution containing […] nisoldipine. […] A List EPC-7 clamp amplifier was used to voltage clamp the isolated cells. […] A variety of voltage pulse protocols were used to measure Ca^2+ current and three types of K^+ currents: inward rectifier (IK1), rapidly activating delayed rectifier (IKr) and the slowly activating delayed rectifier (IKs). Sanguinetti M. C. and Jurkiewicz, N. K., "Two components of cardiac delayed rectifier K^+ current: Differential sensitivity to block by Class III antiarrhythmic agents". […] Data was analyzed as % block from control membrane currents.
Nisoldipins was prepared as a 4 mM stock solution in polyethylne glycol 200. Compounds tested in this series were prepared as 10 mM stock solutions in polyethylene glycol 400 or dimethyl sulfoxide.

## Cc1cccc(NC(=O)N[C@@H]2N=C(c3ccccc3)c3ccccc3N(C)C2=O)c1 [Compound 4, (R)-N-(2,3-dihydro-1-methyl-2-oxo-5-phenyl-1H-1,4-benzodiazepin-3-yl)-N'-(3-methylphenyl)urea]
  IC50: ~5 µM
1 μM
  effect on IKr: Little or no effect
